The conditions of this data set: from COC(=O)c1cccc(CN2C(=O)NC(C)(c3cccc(CCCN)c3)C2=O)c1; amide bond; sodium methoxide; MeOH; 7.5 mM; 85.0 °C; 96.0 h.

`CC12NC(=O)N(Cc3cccc(c3)C(=O)NCCCc3cccc1c3)C2=O` (stereo not shown): the ring closure, yield of all isomers turned out to be 48%.

The record behind these values is patent US8557798.
